pEC50, pIC50: −log10 of the molar value. Where only a bound is given, the exact number is not on record here.

By pIC50 is commonly meant −log10 of the IC50, conventionally taken in molar units. In general, Cmax refers to the maximum level reached in the sampled fluid or tissue. A word on the logP: it is a log measure of how a compound divides between an organic and an aqueous phase. A lower logP goes with lower lipophilicity. The solubility is the concentration that dissolves in the medium under given conditions. Higher therefore signals much dissolved substance. What is called pEC50 is the EC50 on a negative log10 scale, so that one unit is a factor of ten. Read a high pEC50 as a small EC50.

A short description of series [1]: Inhibition of Toxoplasma gondii DHFR.
Series [2] is described as follows: Selectivity index, ratio of IC50 for rat liver DHFR to IC50 for Toxoplasma gondii DHFR.
The nature of series [3]: Inhibition of Brugia malayi DHFR.
The nature of series [4]: Inhibition of quorum sensing system in Chromobacterium violaceum CV12472.
The nature of series [5]: Cmax in mouse at 1 mg/kg, po. Format: ADME, organism-based. The arrangement: dose 1 mg/kg, route po. As to conditions: in vivo.
Series [6] can be described thus: Elimination half life in mouse at 1 mg/kg, po. Format: ADME, organism-based. Conditions: in vivo, read-out: beta t1/2 (converted).
The test system of series [7] is Escherichia coli. In words: Bactericidal activity against Escherichia coli assessed as time required to kill the bacteria at 95 uM. Format: functional.
The nature of series [8]: Lipophilicity, logP of the compound. Format: physicochemical. Conditions: octanol/water.
The test system of series [9] is SK-OV-3. In words: Antiproliferative activity against human SK-OV-3 cells incubated for 72 hrs by MTT assay. Conditions: SK-OV-3, 72 h. Format: functional, cell-based. (In general: Tetrazolium assays rely on reduction of a dye to a coloured formazan, in cell work by metabolically active cells.)
The test system of series [10] is IGROV-1. Put plainly: Antiproliferative activity against human IGROV-1 cells incubated for 72 hrs by MTT assay. Format: functional, cell-based. As to conditions: IGROV-1, 72 h.
Series [11] in a line: Solubility of compound at pH 8. Format: physicochemical. Conditions: buffer.
Series [12] has as its target Replicase polyprotein 1ab (Severe acute respiratory syndrome coronavirus 2) (UniProt P0DTD1). In words: Binding affinity to SARS CoV-2 3CL protease assessed as gibbs free energy change.
In series [13] the test system is C6661. In words: Anticancer activity against human C6661 cells. Format: functional, cell-based.
Series [14] deals with FaDu. In words: Anticancer activity against human FaDu cells. Format: functional, cell-based.
The subject of series [15] is A2780. In words: Antiproliferative activity against human A2780 cells. Format: functional, cell-based.
Series [16] relates to T47D. Put plainly: Antiproliferative activity against human T47D cells in presence of phenformin. Format: functional, cell-based.
Series [17] concerns MDA-MB-231. In words: Antiproliferative activity against human MDA-MB-231 cells in presence of phenformin. Format: functional, cell-based.

Turning to `CC1(C)N=C(N)N=C(N)N1c1ccc(OCc2ccc(-c3ccccc3)cc2)cc1`, in series [1], the pIC50 is 7.92. Also, the Ratio IC50 in series [2] was determined as 2.15. Consider `CC1(C)N=C(N)N=C(N)N1c1ccc(OCc2ccc(Cl)cc2Cl)cc1`, for which the pIC50 in series [3] was 5.24. On the same count and under the same terms, to `NC(N)=N/C(N)=N/c1ccc(OCc2ccc(-c3ccccc3)cc2)cc1` belongs more than 5.23; to `COc1cc(Cc2cnc(N)nc2N)cc(OC)c1OC` [TRIMETHOPRIM], 4.89.

For the compound `CCc1nc(N)nc(N)c1-c1ccc(Cl)cc1` [PYRIMETHAMINE], in series [3], the pIC50 was 4.70. In the case of `N=C(N=C(N)N)N(Cc1ccccc1)c1ccccc1`, the negative logarithm of the IC50 (pIC50) in series [4] is 3.75.

Regarding `CN(C)C(=N)N=C(N)N` [METFORMIN], the concentration in [5] peaked (Cmax) at 2000 ng/mL. Also, the half-life in [6] was 6 h. `C=CC(=O)OCCc1ccc(/N=C(N)/N=C(\N)Nc2ccc(Cl)cc2)cc1.Cl`: the Time in [7] amounted to 30 min. Regarding `Clc1ccc(Nc2ccnc(Nc3ccc(Cl)cc3)n2)cc1`, the logP in [8] came out at 5.5.

In the case of `N=C(NCCCCCCCCCCCCNC(=N)Nc1ncc(Cl)cn1)Nc1ncc(Cl)cn1`, the logP in [8] amounted to 5.5.

Consider `NC(N)=N/C(N)=N/Cc1ccco1`, for which the pIC50 in [9] was 3.42; in series [10], 3.82. With `Cl.N=C(N)NC(=N)N1CCOCC1`, in [11], the concentration in solution (solubility) came to 360 mg/mL. In addition, the deltaG in [12] is -2.11 kcal/mol. For `CCCC[C@@H](CC)CNC(=N)NC(=N)NCCCCCCNC(=N)NC(=N)NC[C@H](CC)CCCC`, the pEC50 in [13] was 5.59; in series [14], 5.74. For the compound `N=C(N=C(N)N)N(c1ccccc1)c1ccc(N)cc1`, the pIC50 in series [4] is 3.92.

In [15], `NC(N)=N/C(N)=N/CCOc1ccn(-c2ccc(Cl)cc2)n1` had a pIC50 of 5.16. On to `CN(C)C(=N)NC(=N)N` [METFORMIN], for which the pIC50 in series [9] was 3.82; in series [16], 2.03; in series [10] it was 3.07; in series [17], 2.40. Besides, in series [12], the deltaG is -6.72 kcal/mol.

For the compound `NC(N)=N/C(N)=N/c1ccc(OCc2cccc(Cl)c2)cc1`, the pIC50 in series [3] is 4.78. In turn, `NC(N)=N/C(N)=N/c1ccc(OCc2ccc(Cl)cc2Cl)cc1` gave a pIC50 in series [3] of 5.20. Compound `N=C(NCCCCCCCCCCNC(=N)Nc1ncc(Cl)cn1)Nc1ncc(Cl)cn1` yielded a logP in series [8] of 5.5.

For the origin of these results see ChEMBL document CHEMBL5241068, “Biguanides: Species with versatile therapeutic applications” (Eur J Med Chem, 2021).
